Measured values: patent publication US7662832B2, “Pyrrolo[2,3-c]pyridine derivatives and processes for the preparation thereof” (priority 2004, dated 2010)
Structures can show the parent of a compound that is named as a salt.

Target: Proton Pump (H^+/K^+-ATPase) (Sus scrofa, UniProt P19156)
Experiment: Inhibitory effects on proton pump (H^+/K^+-ATPase) activity
Assay type: biochemical
Conditions: hog gastric vesicles; K^+ stimulated H^+/K^+-ATPase activity; 30 minutes at 37° C.

Chain of Proton Pump (H^+/K^+-ATPase) (P19156 2-1034 limits assumed): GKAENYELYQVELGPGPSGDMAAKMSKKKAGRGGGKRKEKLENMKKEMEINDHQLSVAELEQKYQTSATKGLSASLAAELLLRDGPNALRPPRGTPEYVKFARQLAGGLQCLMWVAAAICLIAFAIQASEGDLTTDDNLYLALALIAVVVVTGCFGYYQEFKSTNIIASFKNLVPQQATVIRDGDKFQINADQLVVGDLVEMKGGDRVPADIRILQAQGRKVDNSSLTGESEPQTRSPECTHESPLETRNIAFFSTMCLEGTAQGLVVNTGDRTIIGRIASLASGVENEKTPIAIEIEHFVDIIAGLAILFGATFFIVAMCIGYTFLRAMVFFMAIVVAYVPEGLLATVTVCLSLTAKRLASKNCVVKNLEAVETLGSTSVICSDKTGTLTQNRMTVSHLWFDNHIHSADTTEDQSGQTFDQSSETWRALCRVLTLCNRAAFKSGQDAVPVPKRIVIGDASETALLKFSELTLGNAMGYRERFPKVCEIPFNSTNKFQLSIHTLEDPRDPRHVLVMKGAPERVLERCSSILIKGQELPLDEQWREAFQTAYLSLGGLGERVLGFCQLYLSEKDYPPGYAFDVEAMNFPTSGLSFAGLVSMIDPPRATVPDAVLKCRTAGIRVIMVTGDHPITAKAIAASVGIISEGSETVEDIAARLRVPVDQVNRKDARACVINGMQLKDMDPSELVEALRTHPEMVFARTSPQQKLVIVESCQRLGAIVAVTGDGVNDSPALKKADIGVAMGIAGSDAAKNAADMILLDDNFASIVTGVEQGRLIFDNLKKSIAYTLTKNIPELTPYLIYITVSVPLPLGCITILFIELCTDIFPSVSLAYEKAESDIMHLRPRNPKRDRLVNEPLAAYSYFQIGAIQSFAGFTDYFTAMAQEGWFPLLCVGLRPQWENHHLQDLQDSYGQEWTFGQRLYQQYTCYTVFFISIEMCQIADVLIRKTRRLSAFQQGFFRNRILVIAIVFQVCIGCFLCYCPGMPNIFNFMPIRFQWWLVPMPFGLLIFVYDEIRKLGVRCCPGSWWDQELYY
Chain of Proton Pump (H^+/K^+-ATPase) (P18434 whole entry partner): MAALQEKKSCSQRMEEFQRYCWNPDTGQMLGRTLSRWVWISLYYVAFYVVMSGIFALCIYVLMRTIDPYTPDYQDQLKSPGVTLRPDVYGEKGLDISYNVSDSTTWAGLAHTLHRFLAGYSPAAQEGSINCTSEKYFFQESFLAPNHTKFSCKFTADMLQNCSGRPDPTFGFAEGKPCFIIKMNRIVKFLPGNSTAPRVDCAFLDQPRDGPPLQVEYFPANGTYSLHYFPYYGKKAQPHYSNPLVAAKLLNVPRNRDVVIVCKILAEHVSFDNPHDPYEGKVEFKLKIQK

IC50 [nM]	Structure (SMILES)
310	COc1ccc(Cn2c(C)c(C)c3ccnc(N(C)Cc4ccc(F)cc4)c32)cc1 [Example 156, 7-[N-(4-fluorobenzyl)-N-methyl]amino-1-(4-methoxybenzyl)-2,3-dimethyl-1H-pyrrolo[2,3-c]pyridine hydrochloride]
220	CC=CCn1c(C)c(C)c2ccnc(NCc3ccccc3)c21 [Example 183, 7-benzylamino-1-(but-2-enyl)-2,3-dimethyl-1H-pyrrolo[2,3-c]pyridine hydrochloride]
1030	Cc1c(C)n(Cc2cccc(F)c2)c2c(N3CCc4ccccc4C3)nc(CNc3ccc(F)cc3)cc12 [Example 866, N-[7-(3,4-dihydro-1H-isoquinolin-2-yl)-1-(3-fluorobenzyl)-2,3-dimethyl-1H-pyrrolo[2,3-c]pyridin-5-ylmethyl]-4-fluorophenylamine hydrochloride]
220	Cc1cccc(Cn2c(C)c(C)c3cc(C(=O)N4CCCCC4)nc(N4CCc5ccccc5C4)c32)c1 [Example 798, [7-(3,4-dihydro-1H-isoquinolin-2-yl)-2,3-dimethyl-1-(3-methylbenzyl)-1H-pyrrolo[2,3-c]pyridin-5-yl]-(piperidin-1-yl)-methanone hydrochloride]
36	Cc1[nH]c2c(N3CCc4ccccc4C3C)nccc2c1C (stereo not shown) [Example 552, 2-(2,3-dimethyl-1H-pyrrolo[2,3-c]pyridin-7-yl)-1-methyl-1,2,3,4-tetrahydroisoquinoline hydrochloride]
25	Cc1c(C)n(Cc2cccc(F)c2)c2c(N3CCc4ccccc4C3)nc(C(=O)O)cc12 [Example 737, 7-(3,4-dihydro-1H-isoquinolin-2-yl)-1-(3-fluorobenzyl)-2,3-dimethyl-1H-pyrrolo[2,3-c]pyridin-5-carboxylic acid]
43	Cc1c(C)n(Cc2cccc(F)c2)c2c(N3CCc4ccccc4C3)nc(CNC3CCC3)cc12 [Example 870, N-[7-(3,4-dihydro-1H-isoquinolin-2-yl)-1-(3-fluorobenzyl)-2,3-dimethyl-1H-pyrrolo[2,3-c]pyridin-5-ylmethyl]-cyclobutylamine hydrochloride]
152	Cc1cccc(Cn2c(C)c(C)c3cc(CN4CCN(C)CC4)nc(N4CCc5ccccc5C4)c32)c1 [Example 878, 2-[2,3-dimethyl-1-(3-methylbenzyl)-5-(4-methylpiperazin-1-ylmethyl)-1H-pyrrolo[2,3-c]pyridin-7-yl]-1,2,3,4-tetrahydroisoquinoline hydrochloride]
39	Cc1c(C)n(Cc2ccc(F)cc2)c2c(N3CCc4ccccc4C3)nc(C(=O)N3CCN(C)CC3)cc12 [Example 831, [7-(3,4-dihydro-1H-isoquinolin-2-yl)-1-(4-fluorobenzyl)-2,3-dimethyl-1H-pyrrolo[2,3-c]pyridin-5-yl]-(4-methylpiperazin-1-yl)-methanone hydrochloride]
117	Cc1c(C)n(CC2CC2)c2c(N3CCc4ccccc4C3)nc(C(=O)N3CCCCC3)cc12 [Example 793, [1-cyclopropylmethyl-7-(3,4-dihydro-1H-isoquinolin-2-yl)-2,3-dimethyl-1H-pyrrolo[2,3-c]pyridin-5-yl]-(piperidin-1-yl)-methanone hydrochloride]
26	COCCn1c(C)c(C)c2cc(C(=O)N3CCN(C)CC3)nc(N3CCc4ccccc4C3)c21 [Example 821, [7-(3,4-dihydro-1H-isoquinolin-2-yl)-1-(2-methoxyethyl)-2,3-dimethyl-1H-pyrrolo[2,3-c]pyridin-5-yl]-(4-methylpiperazin-1-yl)-methanone hydrochloride]
546	CNC(=O)c1cc2c(C)c(C)n(Cc3ccccc3)c2c(N2CCc3ccccc3C2)n1 [Example 772, 1-benzyl-7-(3,4-dihydro-1H-isoquinolin-2-yl)-2,3-dimethyl-N-methyl-1H-pyrrolo[2,3-c]pyridin-5-carboxamide hydrochloride]
64	Cc1ccc(CNc2nccc3c(C)c(C)n(CC(C)C)c23)cc1 [Example 198, 1-isobutyl-2,3-dimethyl-7-(4-methylbenzylamino)-1H-pyrrolo[2,3-c]pyridine hydrochloride]
129	C=CCn1c(C)c(C)c2ccnc(-c3ccc(C)cc3)c21 [Example 277, 1-allyl-2,3-dimethyl-7-(p-tolyl)-1H-pyrrolo[2,3-c]pyridine hydrochloride]
66	Cc1c(C)n(CC(C)C)c2c(NCc3ccc(Cl)cc3)nccc12 [Example 209, 7-(4-chlorobenzylamino)-1-isobutyl-2,3-dimethyl-1H-pyrrolo[2,3-c]pyridine hydrochloride]
260	Cc1ccccc1CNc1nccc2c(C)c(C)n(Cc3ccccc3)c12 [Example 216, 1-benzyl-2,3-dimethyl-7-(2-methylbenzylamino)-1H-pyrrolo[2,3-c]pyridine hydrochloride]

IC50 [nM]	Structure (SMILES)
327	Cc1c(C)n(Cc2ccc(Cl)cc2)c2c(CN(C)c3ccc(F)cc3)nccc12 [Example 113, N-[1-(4-chlorobenzyl)-2,3-dimethyl-1H-pyrrolo[2,3-c]pyridin-7-ylmethyl]-N-(4-fluorophenyl)-methylamine hydrochloride]
139	C=CCn1c(C)c(C)c2cc(N)nc(N3CCc4ccccc4C3)c21 [Example 846, 1-allyl-7-(3,4-dihydro-1H-isoquinolin-2-yl)-2,3-dimethyl-1H-pyrrolo[2,3-c]pyridin-5-amine hydrochloride]
20	Cc1c(C)n(Cc2ccccn2)c2c(N3CCc4ccccc4C3)nccc12 [Example 517, 1-(pyridin-2-ylmethyl)-7-(1,2,3,4-tetrahydroisoquinolin-2-yl)-2,3-dimethyl-1H-pyrrolo[2,3-c]pyridine hydrochloride]
230	C=CCn1c(C)c(C)c2ccnc(CCc3ccccc3)c21 [Example 448, 1-allyl-2,3-dimethyl-7-phenethyl-1H-pyrrolo[2,3-c]pyridine hydrochloride]
200	Cc1c(C)n(CC2CC2)c2c(N(C)Cc3ccc(F)cc3)nccc12 [Example 144, 1-cyclopropylmethyl-7-[N-(4-fluorobenzyl)-N-methyl]amino-2,3-dimethyl-1H-pyrrolo[2,3-c]pyridine hydrochloride]
1	CCn1c(C)c(C)c2cc(C(=O)N3CCN(C)CC3)nc(N3CCc4ccccc4C3)c21 [Example 782, [7-(3,4-dihydro-1H-isoquinolin-2-yl)-1-ethyl-2,3-dimethyl-1H-pyrrolo[2,3-c]pyridin-5-yl]-(4-methylpiperazin-1-yl)-methanone hydrochloride]
230	COCCn1c(C)c(C)c2ccnc(N3CCc4ccccc4C3C)c21 (stereo not shown) [Example 555, 2-[1-(2-methoxyethyl)-2,3-dimethyl-1H-pyrrolo[2,3-c]pyridin-7-yl]-1-methyl-1,2,3,4-tetrahydroisoquinoline hydrochloride]
37	Cc1cccc(Cn2c(C)c(C)c3cc(C(=O)N4CCN(C)CC4)nc(N4CCc5ccccc5C4)c32)c1 [Example 820, [7-(3,4-dihydro-1H-isoquinolin-2-yl)-2,3-dimethyl-1-(3-methylbenzyl)-1H-pyrrolo[2,3-c]pyridin-5-yl]-(4-methylpiperazin-1-yl)-methanone hydrochloride]
287	Cc1c(C)n(Cc2ccc(F)cc2)c2c(N3CCc4ccccc4C3)nc(C(=O)N3CCCCC3)cc12 [Example 797, [7-(3,4-dihydro-1H-isoquinolin-2-yl)-1-(4-fluorobenzyl)-2,3-dimethyl-1H-pyrrolo[2,3-c]pyridin-5-yl]-(piperidin-1-yl)-methanone hydrochloride]
10	Cc1c(CC#N)c2ccnc(N3CCc4ccccc4C3)c2n1Cc1ccccc1 [Example 624, [1-benzyl-7-(3,4-dihydro-1H-isoquinolin-2-yl)-2-methyl-1H -pyrrolo[2,3-c]pyridin-3-yl]-acetonitrile hydrochloride]
164	Cc1c(C)n(Cc2cccc(Cl)c2)c2c(N3CCc4ccccc4C3)nc(C(=O)N3CCCCC3)cc12 [Example 799, [1-(3-chlorobenzyl)-7-(3,4-dihydro-1H-isoquinolin-2-yl)-2,3-dimethyl-1H-pyrrolo[2,3-c]pyridin-5-yl]-(piperidin-1-yl)-methanone hydrochloride]
173	C=CCn1c(C)c(C)c2ccnc(-c3ccc(Cl)cc3)c21 [Example 300, 1-allyl-7-(4-chlorophenyl)-2,3-dimethyl-1H-pyrrolo[2,3-c]pyridine hydrochloride]
43	Cc1c(C)n(CC(C)C)c2c(N3CCc4ccccc4C3)nc(C(=O)N3CCN(C)CC3)cc12 [Example 833, [7-(3,4-dihydro-1H-isoquinolin-2-yl)-1-isobutyl-2,3-dimethyl-1H-pyrrolo[2,3-c]pyridin-5-yl]-(4-methylpiperazin-1-yl)-methanone hydrochloride]
330	CCCn1c(C)c(C)c2ccnc(NCc3ccc(C)cc3)c21 [Example 205, 2,3-dimethyl-7-(4-methylbenzylamino)-1-propyl-1H-pyrrolo[2,3-c]pyridine hydrochloride]
36	Cc1c(C)n(Cc2ccccc2)c2c(N3CCc4ccccc4C3)nc(C(=O)N(C)C)cc12 [Example 771, 1-benzyl-7-(3,4-dihydro-1H-isoquinolin-2-yl)-2,3-dimethyl-N-dimethyl-1H-pyrrolo[2,3-c]pyridin-5-carboxamide hydrochloride]

Structure (SMILES)	IC50 [nM]
Cc1c(C)n(Cc2ccccc2)c2c(N3CCc4ccccc4C3)nc(C(=O)N3CCSCC3)cc12 [Example 789, [1-benzyl-7-(3,4-dihydro-1H-isoquinolin-2-yl)-2,3-dimethyl-1H-pyrrolo[2,3-c]pyridin-5-yl]-(thiomorpholin-1-yl)-methanone hydrochloride]	65
Cc1c(C)n(Cc2cccc(Cl)c2)c2c(N3CCc4ccccc4C3)nc(C(=O)N3CCSCC3)cc12 [Example 790, [1-(3-chlorobenzyl)-7-(3,4-dihydro-1H-isoquinolin-2-yl)-2,3-dimethyl-1H-pyrrolo[2,3-c]pyridin-5-yl]-(thiomorpholin-1-yl)-methanone hydrochloride]	128
C=CCn1c(C)c(C)c2ccnc(N3CCc4ccccc4C3)c21 [Example 486, 1-allyl-7-(1,2,3,4-tetrahydroisoquinolin-2-yl)-2,3-dimethyl-1H-pyrrolo[2,3-c]pyridine tartrate]	8
